This is an account of results in US20250340563A1, “FUSED PYRIDAZINE DERIVATIVES AS NLRP3 INHIBITORS” (Takeda Pharmaceutical Company Limited, priority 2022, published 2025).

The target of one assay is NLRP3 inflammasome (Homo sapiens, UniProt Q96P20). The experiment in a line: IL-1β assay in IFN-γ-differentiated, LPS-primed, ATP-activated THP-1 cells (ELISA). The assay is classed as cell-based. Particulars: 50 ng/mL LPS priming, 2.5 mM ATP activation, 2 hours. A digest of the protocol: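 Supernatant IL-1β is quantified by ELISA after 2 h of 2.5 mM ATP stimulation at 37 °C, with IC50 taken from a four-parameter fit of % inhibition. Before this, THP-1 macrophages (25 ng/mL IFN-γ, 24 h) were LPS-primed (50 ng/mL, 24 h, no FBS) and exposed to serially diluted compound for 30 min.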
NLRP3 inflammasome, sequence (Q96P20 whole entry): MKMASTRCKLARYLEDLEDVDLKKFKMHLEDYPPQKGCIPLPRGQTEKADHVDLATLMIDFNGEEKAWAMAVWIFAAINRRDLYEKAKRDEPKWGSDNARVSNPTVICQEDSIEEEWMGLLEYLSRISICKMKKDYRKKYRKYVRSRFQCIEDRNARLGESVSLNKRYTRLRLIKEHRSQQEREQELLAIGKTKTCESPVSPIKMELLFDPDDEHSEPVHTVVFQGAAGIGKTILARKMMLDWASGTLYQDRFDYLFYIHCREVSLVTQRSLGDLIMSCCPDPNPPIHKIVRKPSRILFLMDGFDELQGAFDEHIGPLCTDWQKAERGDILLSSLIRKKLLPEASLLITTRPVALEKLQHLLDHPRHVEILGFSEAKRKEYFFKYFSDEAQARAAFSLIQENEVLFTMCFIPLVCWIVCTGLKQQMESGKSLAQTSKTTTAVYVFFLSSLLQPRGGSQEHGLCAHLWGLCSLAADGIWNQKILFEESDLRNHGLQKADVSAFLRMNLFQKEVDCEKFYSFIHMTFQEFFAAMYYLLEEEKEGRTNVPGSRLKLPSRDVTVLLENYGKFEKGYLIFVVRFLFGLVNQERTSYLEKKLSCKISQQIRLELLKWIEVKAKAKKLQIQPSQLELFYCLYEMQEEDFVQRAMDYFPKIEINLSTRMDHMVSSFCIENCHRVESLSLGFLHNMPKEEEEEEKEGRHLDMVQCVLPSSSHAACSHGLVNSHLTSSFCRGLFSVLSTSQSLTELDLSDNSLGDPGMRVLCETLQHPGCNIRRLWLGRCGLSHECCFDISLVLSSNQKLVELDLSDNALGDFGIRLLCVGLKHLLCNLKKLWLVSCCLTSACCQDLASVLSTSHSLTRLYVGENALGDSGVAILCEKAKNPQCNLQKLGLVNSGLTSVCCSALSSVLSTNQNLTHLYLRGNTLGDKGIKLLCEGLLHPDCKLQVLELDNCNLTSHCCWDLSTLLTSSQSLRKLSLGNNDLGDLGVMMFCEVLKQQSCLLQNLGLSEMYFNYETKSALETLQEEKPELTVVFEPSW
(In general: An ELISA detects its analyte on a solid surface through an enzyme-linked reagent.)

The subject of a further assay is NF-κB pathway. As to the kind of experiment: TNF-α assay in IFN-γ-differentiated, LPS-stimulated THP-1 cells (ELISA). It counts as cell-based. As to conditions: Homo sapiens, 50 ng/mL LPS, 3 hours. On the procedure: Monocytic THP-1 cells (ATCC: TIB-202) are maintained in accordance with the provider's instructions in RPMI media (Life Technologies, Cat #A10491-01); RPMI is supplemented with 10% heat inactivated fetal bovine serum (Hyclone Cat #SH30396.03). The cells are differentiated into macrophages by the addition of 25 ng/mL IFN-γ for 24 hours at 37° C./5% CO2. Media is exchanged with fresh media with no FBS. The cells are plated at 40,000 cells per well in 384-well flat-bottom cell culture plates (Costar 3764) containing compounds (added in 1:1000) in a 1:3.16 serial dilution series in DMSO and are incubated for 30 minutes at 37° C./5% CO2. The NF-κB pathway is activated with the addition of 50 ng/mL LPS and the cells are incubated for 3 hours at 37° C./5% CO2. At the end of the incubation period, supernatant (40 μL) is removed, and […] are monitored using an ELISA (Human TNF-α ELISA, R&D systems, Cat #DY210) according to the manufacturer's instructions.
The IC50 values are calculated from a plot of percentage of inhibition versus the inhibitor concentration by a logistics curve fit according to: Y=[Bottom+(Top−Bottom)]/(1+10^[(Log IC50−X)·Hill Slope], where Y is the % inhibition at the inhibitor concentration, X, “Bottom” is the lowest inhibition value, i.e. 0%, “Top” is the maximum inhibition value, i.e. 100%, and the “Hill Slope” describes the slope of the sigmoidal curve between the “Bottom” and “Top” values. The curve fitting was conducted with internally developed software.

The structures appear in SMILES notation.

As for `COc1ccc(-c2nnc(N[C@@H]3CCCN(C)C3)c3ccnc(C)c23)c(O)c1` [Example 79, (R)-5-methoxy-2-(5-methyl-1-((1-methylpiperidin-3-yl)amino)pyrido[3,4-d]pyridazin-4-yl)phenol], the figures for the IC50 against NLRP3 inflammasome and in the assay with NF-κB pathway were 5 nM and 24.3 µM, respectively.
Regarding `COc1cc2c(NC3CCCN(C)C3)nnc(-c3ccc(Cl)cc3)c2cn1` (stereo not shown) [Example 82, 4-(4-chlorophenyl)-7-methoxy-N-(1-methylpiperidin-3-yl)pyrido[3,4-d]pyridazin-1-amine], the IC50 is 95 nM against NLRP3 inflammasome and more than 10 µM in the assay with NF-κB pathway.
Turning to `Clc1ccc(-c2nnc(NC3CCCN(Cc4ccccc4)C3)c3ccccc23)cc1` (stereo not shown) [Example 155, N-(1-benzylpiperidin-3-yl)-4-(4-chlorophenyl)phthalazin-1-amine], the values for the IC50 against NLRP3 inflammasome and in the assay with NF-κB pathway were 66 nM and 23.4 µM, respectively.
Turning to `CN1CCC[C@@H](Nc2nnc(-c3ccc(Cl)cc3)c3cnccc23)C1` [Example 67, (R)-4-(4-chlorophenyl)-N-(1-methylpiperidin-3-yl)pyrido[3,4-d]pyridazin-1-amine], the IC50 at NLRP3 inflammasome was 552 nM; with NF-κB pathway it was more than 30 µM.
Taken in the same sequence, the figures for `COc1ccc(-c2nnc(N[C@@H]3CCCN(CCF)C3)c3ccccc23)cc1` [Example 58, (R)—N-(1-(2-fluoroethyl)piperidin-3-yl)-4-(4-methoxyphenyl)phthalazin-1-amine] were 66 nM and more than 30 µM.
Taken in the same sequence, the figures for `COc1cc2c(-c3ccc(Cl)cc3)nnc(NC3CCCN(C)C3)c2cn1` (stereo not shown) [Example 83, 1-(4-chlorophenyl)-7-methoxy-N-(1-methylpiperidin-3-yl)pyrido[3,4-d]pyridazin-4-amine] were 82 nM and more than 30 µM.
On to `CN1C[C@H](F)C[C@@H](Nc2nnc(-c3ccc(OC(F)(F)F)cc3F)c3c2CCOC3)C1` [Example 214, N-((3R,5R)-5-fluoro-1-methylpiperidin-3-yl)-4-(2-fluoro-4-(trifluoromethoxy)phenyl)-7,8-dihydro-5H-pyrano[3,4-d]pyridazin-1-amine], for which the IC50 was 556 nM at NLRP3 inflammasome and more than 30 µM in the assay with NF-κB pathway.
Taken in the same sequence, the figures for `COc1ccc(-c2nnc(Nc3cccc(O)c3)c3ccncc23)cc1` [Example 41, 3-((4-(4-methoxyphenyl)pyrido[3,4-d]pyridazin-1-yl)amino)phenol] were 394 nM and more than 30 µM.
Taken in the same sequence, the figures for `CN1CCCC(Nc2nnc(-c3ccc(Cl)cc3)c3ccccc23)C1=O` (stereo not shown) [Example 111, 3-((4-(4-chlorophenyl)phthalazin-1-yl)amino)-1-methylpiperidin-2-one] were 3780 nM and more than 30 µM.
On the same counts, the results for `CN1CCC[C@@H](Nc2nnc(-c3ccccc3O)c3ccncc23)C1` [Example 28, (R)-2-(4-((1-methylpiperidin-3-yl)amino)pyrido[3,4-d]pyridazin-1-yl)phenol] are 8 nM and more than 30 µM.
As for `F[C@H]1CNC[C@H](Nc2nnc(-c3ccc(Cl)cc3)c3ccccc23)C1` [Example 190, 4-(4-chlorophenyl)-N-((3R,5R)-5-fluoropiperidin-3-yl)phthalazin-1-amine], the figures for the IC50 on NLRP3 inflammasome and in the assay on NF-κB pathway were 648 nM and 7.59 µM, respectively.
Taken in the same sequence, the figures for `Oc1ccccc1-c1nnc(N[C@@H]2CCCN(CCF)C2)c2ccccc12` [Example 60, (R)-2-(4-((1-(2-fluoroethyl)piperidin-3-yl)amino)phthalazin-1-yl)phenol] were 27 nM and 21.4 µM.
On the same counts, the results for `CCN1C[C@H](F)C[C@@H](Nc2nnc(-c3ccc(OC)cc3)c3ccccc23)C1` [Example 193, N-((3R,5R)-1-ethyl-5-fluoropiperidin-3-yl)-4-(4-methoxyphenyl)phthalazin-1-amine] are 22 nM and more than 30 µM.
On the same counts, the results for `Cc1cc2c(-c3ccc(Cl)cc3)nnc(NC3CCCN(C)C3)c2cn1` (stereo not shown) [Example 80, 1-(4-chlorophenyl)-7-methyl-N-(1-methylpiperidin-3-yl)pyrido[3,4-d]pyridazin-4-amine] are 36 nM and more than 30 µM.
With `COc1ccc(-c2nnc(Nc3cccc(O)c3)c3cnccc23)cc1` [Example 40, 3-((1-(4-methoxyphenyl)pyrido[3,4-d]pyridazin-4-yl)amino)phenol], the 50% inhibitory concentration (IC50) against NLRP3 inflammasome was 3020 nM; in the assay on NF-κB pathway it was more than 30 µM.
Taken in the same sequence, the figures for `CN1CCCC(Nc2nnc(-c3ccc(C4CC4)cc3)c3ccccc23)C1` (stereo not shown) [Example 16, 4-(4-cyclopropylphenyl)-N-(1-methylpiperidin-3-yl)phthalazin-1-amine] were 112 nM and more than 30 µM.
For `COc1ccc(-c2nnc(N[C@@H]3CCCN(C4CC4)C3)c3cnccc23)cc1` [Example 169, (R)—N-(1-cyclopropylpiperidin-3-yl)-1-(4-methoxyphenyl)pyrido[3,4-d]pyridazin-4-amine], the figures for the IC50 against NLRP3 inflammasome and with NF-κB pathway were 7 nM and more than 30 µM, respectively.
Regarding `COc1ccc(-c2nnc(NC3CCCN(C)C3)c3ccncc23)cc1` (stereo not shown) [Example 73, 4-(4-methoxyphenyl)-N-(1-methylpiperidin-3-yl)pyrido[3,4-d]pyridazin-1-amine], the IC50 against NLRP3 inflammasome is 270 nM; with NF-κB pathway it was more than 30 µM.
On the same counts, the results for `COc1ccc(-c2nnc(N[C@@H]3C[C@@H](F)CN(C)C3)c3c2CCOC3)c(C(F)F)c1` [Example 206, 1-(2-(difluoromethyl)-4-methoxyphenyl)-N-((3R,5R)-5-fluoro-1-methylpiperidin-3-yl)-7,8-dihydro-5H-pyrano[3,4-d]pyridazin-4-amine] are 425 nM and more than 30 µM.
On the same counts, the results for `COc1ccc(-c2nnc(N[C@@H]3C[C@@H](F)CN(C)C3)c3c2COCC3)c(C(F)(F)F)c1` [Example 210, N-((3R,5R)-5-fluoro-1-methylpiperidin-3-yl)-4-(4-methoxy-2-(trifluoromethyl)phenyl)-7,8-dihydro-5H-pyrano[3,4-d]pyridazin-1-amine] are 757 nM and more than 30 µM.
On the same counts, the results for `COc1ccc(-c2nnc(N[C@@H]3CCCN(C)C3)c3c2CCOC3)cc1` [Example 222, (R)-1-(4-methoxyphenyl)-N-(1-methylpiperidin-3-yl)-7,8-dihydro-5H-pyrano[3,4-d]pyridazin-4-amine] are 49 nM and more than 30 µM.
Regarding `OC12CCC(Nc3nnc(-c4ccc(Cl)cc4)c4ccccc34)(CC1)C2` [Example 127, 4-((4-(4-chlorophenyl)phthalazin-1-yl)amino)bicyclo[2.2.1]heptan-1-ol], the IC50 at NLRP3 inflammasome is 228 nM; with NF-κB pathway, more than 30 µM.
Taken in the same sequence, the figures for `Oc1cc(Cl)ccc1-c1nnc(N[C@@H]2CCCN(CCF)C2)c2ccccc12` [Example 59, (R)-5-chloro-2-(4-((1-(2-fluoroethyl)piperidin-3-yl)amino)phthalazin-1-yl)phenol] were 2 nM and more than 30 µM.
On to `CN1C[C@H](F)C[C@@H](Nc2nnc(-c3ccccc3O)c3ccncc23)C1` (relative stereo) [Example 172, 2-(4-((trans-5-fluoro-1-methylpiperidin-3-yl)amino)pyrido[3,4-d]pyridazin-1-yl)phenol], for which the figures for the IC50 on NLRP3 inflammasome and in the assay on NF-κB pathway were 20 nM and more than 30 µM, respectively.
Taken in the same sequence, the figures for `Oc1cccc(Nc2nnc(-c3ccc(C4CC4)cc3)c3ccccc23)c1` [Example 19, 3-((4-(4-cyclopropylphenyl)phthalazin-1-yl)amino)phenol] were 1090 nM and 7.76 µM.
Consider `COc1ccc(-c2nnc(N[C@@H]3CCCN(C)C3)c3cnccc23)cc1` [Example 35, (R)-1-(4-methoxyphenyl)-N-(1-methylpiperidin-3-yl)pyrido[3,4-d]pyridazin-4-amine], for which the IC50 was 88 nM against NLRP3 inflammasome and more than 30 µM in the assay with NF-κB pathway.
On the same counts, the results for `CN1C[C@H](F)C[C@@H](Nc2nnc(-c3ccc(Cl)cc3)c3ccncc23)C1` [Example 189, 1-(4-chlorophenyl)-N-((3R,5R)-5-fluoro-1-methylpiperidin-3-yl)pyrido[3,4-d]pyridazin-4-amine] are 110 nM and more than 30 µM.
Taken in the same sequence, the figures for `CN1CCCC(Nc2nnc(-c3ccc(Cl)c(F)c3)c3ccccc23)C1` (stereo not shown) [Example 44, 4-(4-chloro-3-fluorophenyl)-N-(1-methylpiperidin-3-yl)phthalazin-1-amine] were 97 nM and more than 30 µM.
On the same counts, the results for `COc1ccc(-c2nnc(N[C@@H]3C[C@@H](F)CN(C(C)C)C3)c3ccccc23)cc1` [Example 196, N-((3R,5R)-5-fluoro-1-isopropylpiperidin-3-yl)-4-(4-methoxyphenyl)phthalazin-1-amine] are 12 nM and more than 30 µM.

In general, IC50 refers to the point on the concentration scale where inhibition reaches its midpoint. Low values mean greater potency, high ones weaker potency.
